Data taken from patent publication US20240116946A1 (Gilead Sciences, Inc., priority 2022, published 2024).
Like-named read-outs stand apart in the source and are kept apart here.

Assays:
[1] = target: recombinant SARS-CoV-2 Main protease (Mpro) (Severe acute respiratory syndrome coronavirus 2 (2019-nCoV) (SARS-CoV-2), UniProt P0DTD1); experiment: Cov Mpro Biochemical IC50 Assay
SARS-CoV-2-NLuc = experiment: microbe, parasite or virus in culture; assay type: cell-based, SARS Coronavirus 2
[2] = recombinant SARS-CoV-2 Mpro, fluorogenic peptide substrate, read-out: MPro IC50
[3] = Severe acute respiratory syndrome coronavirus, 48 h, read-out: MPro EC50
[4] = recombinant SARS-CoV-2 Mpro 7.5 nM, fluorogenic peptide substrate 40 μM, read-out: MPro IC50
[5] = Severe acute respiratory syndrome coronavirus, 48 h; read-out: MPro EC50

`O=c1[nH]c2cc(-c3c(Cl)cccc3-c3ccc4oncc4c3)ccc2c(=O)n1-c1cncc2ccccc12` [Example 361] was tested, and the IC50 [1, 2] was 38.9 nM and the EC50 (SARS-CoV-2-NLuc; [3]) was 178 nM.

`COc1ccc(Cl)c(-c2cc3[nH]c(=O)n(-c4cncc5ccsc45)c(=O)c3s2)c1` [Example 480] gave an IC50 [1, 4] of 4.97 nM and an EC50 (SARS-CoV-2-NLuc; [3]) of 10.2 nM.

With `COc1ccc(Cl)c(-c2cc3[nH]c(=O)n(-c4cncc5ccc(N6CCn7nnc(C)c7C6)cc45)c(=O)c3s2)c1` [Example 606] the IC50 [1, 4] was < 2.54 nM and the EC50 (SARS-CoV-2-NLuc; [3]) was 28.1 nM.

Work on `COc1cc(-c2cc3[nH]c(=O)n(-c4cncc5nn(C)c(C)c45)c(=O)c3s2)c(Cl)cc1F` [Example 754] yielded an IC50 [1, 4] of 9.21 nM and an EC50 (SARS-CoV-2-NLuc; [3]) of 76.3 nM.

`Cc1cc(-c2cccc(Cl)c2-c2ccc3c(=O)n(-c4cncc5ccccc45)c(=O)[nH]c3c2)cc(C)n1` [Example 208] was tested, and the IC50 [1, 2] was 7.56 nM and the EC50 (SARS-CoV-2-NLuc; [3]) was 4.21 nM.

In the case of `COc1cc(-c2cc3[nH]c(=O)n(-c4cncc5ccccc45)c(=O)c3cc2F)c(Cl)cc1F` [Example 650, 7-(2-chloro-4-fluoro-5-methoxy-phenyl)-6-fluoro-3-(4-isoquinolyl)-1H-quinazoline-2,4-dione], the IC50 ([1]; MPro IC50, recombinant SARS-CoV-2 Mpro 7.5 nM, fluorogenic peptide substrate 40 μM) is reported as 31.7 nM and the EC50 (SARS-CoV-2-NLuc; [5]) is reported as 33.9 nM.

Work on `COc1cc(-c2cc3c(s2)c(=O)n(-c2cncc4nc(C5CC5)n(C)c24)c(=O)n3CCC#N)c(Cl)cc1F` [Example 992] yielded an IC50 [1, 4] of 18.3 nM and an EC50 (SARS-CoV-2-NLuc; [3]) of 112 nM.

`O=c1[nH]c2cc(-c3ccccc3Cl)sc2c(=O)n1-c1cncc2ccc(N3CC4(CCCO4)C3)cc12` [Example 402] gave an IC50 [1, 4] of 6.05 nM and an EC50 (SARS-CoV-2-NLuc; [3]) of 12.1 nM.

With `COc1ccc(Cl)c(-c2cc3[nH]c(=O)n(-c4cncc5ccc(C(=O)N6CCOCC6)cc45)c(=O)c3s2)c1` [Example 566, 6-(2-chloro-5-methoxy-phenyl)-3-[6-(morpholine-4-carbonyl)-4-isoquinolyl]-1H-thieno[3,2-d]pyrimidine-2,4-dione] the IC50 [1, 4] was 9.83 nM and the EC50 (SARS-CoV-2-NLuc; [3]) was 20.8 nM.

In the case of `N#Cc1cc(F)c(F)cc1-c1cc2[nH]c(=O)n(-c3cncc4ccccc34)c(=O)c2s1` [Example 540], the IC50 [1, 4] is reported as 911 nM and the EC50 (SARS-CoV-2-NLuc; [3]) is reported as > 50000 nM.

Compound `COc1cncc(-c2cccc(Cl)c2-c2ccc3c(=O)n(-c4cncc5ccccc45)c(=O)[nH]c3c2)c1` [Example 199] has an IC50 [1, 2] of 19.3 nM and an EC50 (SARS-CoV-2-NLuc; [3]) of 25.4 nM.

For `NS(=O)(=O)c1cccc(-c2cccc(Cl)c2-c2ccc3c(=O)n(-c4cncc5ccccc45)c(=O)[nH]c3c2)c1` [Example 270], the IC50 [1, 2] was 13.9 nM and the EC50 (SARS-CoV-2-NLuc; [3]) was 85.3 nM.

For `COc1cc(-c2cc3c(s2)c(=O)n(-c2cnccc2C)c(=O)n3CCC#N)c(Cl)cc1F` (single isomer, unassigned) [Example 1030, 3-[6-(2-chloro-4-fluoro-5-methoxy-phenyl)-3-(4-methyl-3-pyridyl)-2,4-dioxo-thieno[3,2-d]pyrimidin-1-yl]propanenitrile], the IC50 [1, 4] was 4.5 nM and the EC50 (SARS-CoV-2-NLuc; read-out: MPro EC50) was 9.72 nM.

For `COc1ccc(Cl)c(-c2cc3[nH]c(=O)n(-c4cncc5nn(CC(F)(F)F)cc45)c(=O)c3s2)c1` [Example 501], the IC50 [1, 4] was 14.8 nM and the EC50 (SARS-CoV-2-NLuc; [5]) was 93.9 nM.

`Cn1ncc2cncc(-n3c(=O)c4sc(-c5cc(F)ccc5Cl)cc4n(CCC#N)c3=O)c21` [Example 789] was tested, and the IC50 [1, 4] was 5.82 nM and the EC50 (SARS-CoV-2-NLuc; [3]) was 4.8 nM.

`COc1cc(-c2cc3[nH]c(=O)n(-c4cncc5ccc(C)nc45)c(=O)c3s2)c(Cl)cc1F` (single isomer, unassigned) [Example 1034, 6-(2-chloro-4-fluoro-5-methoxyphenyl)-3-(2-methyl-1,6-naphthyridin-8-yl)thieno[3,2-d]pyrimidine-2,4(1H,3H)-dione] was tested, and the IC50 [1, 4] was 3.13 nM and the EC50 (SARS-CoV-2-NLuc; read-out: MPro EC50) was 3.04 nM.

`O=c1[nH]c2cc(-c3cccc(Cl)c3Cl)ccc2c(=O)n1-c1cncc2ccccc12` [Example 59] was tested, and the IC50 [1, 2] was > 100000 nM and the EC50 (SARS-CoV-2-NLuc; [3]) was 6010 nM.

`O=c1[nH]c2cc(-c3ccccc3Cl)ccc2c(=O)n1-c1cnccc1C1CCOCC1` [Example 129] was tested, and the IC50 [1, 2] was 1030 nM and the EC50 (SARS-CoV-2-NLuc; [3]) was 1230 nM.

With `COc1cc(-c2cc3[nH]c(=O)n(-c4cncc5scc(C)c45)c(=O)c3s2)c(Cl)cc1F` [Example 611, 6-(2-chloro-4-fluoro-5-methoxyphenyl)-3-(3-methylthieno[2,3-c]pyridin-4-yl)thieno[3,2-d]pyrimidine-2,4(1H,3H)-dione] the IC50 [1, 4] was < 2.54 nM and the EC50 (SARS-CoV-2-NLuc; [3]) was 4.95 nM.
